Values of other authors as cited in patent publication US8187800B2, “Methods for selecting active agents for cancer treatment” (Precision Therapeutics, Inc., priority 2007, dated 2012).

Tested on: breast cancer
Conditions: neoadjuvant therapy in breast cancer patients; 4 cycles FEC, then 4 cycles docetaxel

CC(=O)O[C@@]12CO[C@@H]1C[C@H](O)[C@@]1(C)C(=O)[C@H](O)C3=C(C)[C@@H](OC(=O)[C@H](O)[C@@H](NC(=O)OC(C)(C)C)c4ccccc4)C[C@@](O)([C@@H](OC(=O)c4ccccc4)[C@H]21)C3(C)C [docetaxel]
overall clinical response: 75%
